Earlier results on 30 compounds are cited in US20230157963A1, “SOLID ORAL BEADS OF FUNCTIONAL INGREDIENTS AND METHODS OF MAKING THE SAME” (Nulixir Inc., priority 2021, published 2023).

For the series the following is noted: categorization at pH=7 unless stated otherwise; reference phases water and n-octanol.
One may read the log P as a log measure of how a compound divides between an organic and an aqueous phase. For the compound `COc1cc2c(c(OC)c1OC)-c1c(cc3c(c1OC)OCO3)CC(C)C(C)C2` (single isomer, unassigned; (-)) [(−)-schisandrin B], the “log P” value was around 4.
For the compound `COc1cc(/C=C/c2ccccc2)oc(=O)c1` [5,6-dehydrokawain], the “log P” value is on record as around 2.9.
`COC1=CC(=O)OC(/C=C/c2ccc(OC)cc2)C1` (stereo not drawn) [5,6-dihydroyangonin]: the “log P” value is around 2.5.
On to `CC1=C(CO)C(=O)O[C@@H]([C@@H](C)[C@H]2CC[C@H]3[C@@H]4C[C@H](Cl)[C@]5(O)[C@@H](O)C=CC(=O)[C@]5(C)[C@H]4CC[C@]23C)C1` [6a-chloro-5b-hydroxywithaferin A], for which the “log P” value is around 3.2.
In the case of `COC1=CC(=O)O[C@@H](CCc2ccc3c(c2)OCO3)C1` [7,8-dihydromethysticin], the “log P” value was around 2.2.
For `COc1ccc(CCc2cc(OC)cc(=O)o2)cc1` [7,8-dihydroyangonin], the “log P” value was around 2.9.
In the case of `COc1cc(/C=C\c2ccc(OC)c(O)c2)oc(=O)c1` [11-hydroxyyangonin], the “log P” value is reported as around 2.2.
On to `COc1cc2c(c(OC)c1OC)-c1c(cc(OC)c(OC)c1OC)C[C@](C)(O)[C@@H](C)C2` [(+)-schisandrin], for which the log partition coefficient (log P) was around 5.
`COc1cc2c(c(OC)c1OC)-c1c(cc(OC)c(OC)c1OC)C[C@H](C)[C@H](C)C2` [(−)-schisandrin A]: the “log P” value is listed as around 3.6.
Take `COc1c2c(cc3c1-c1c(cc4c(c1OC)OCO4)C[C@H](C)[C@H](C)C3)OCO2` [(−)-schisandrin C]: the “log P” value is listed as around 3.5.
Regarding `CC(C)=C[C@@H]1CO[C@]23C[C@]4(CO2)[C@H](CC[C@@H]2[C@@]5(C)CC[C@H](O[C@@H]6OC[C@H](O)[C@H](O[C@@H]7O[C@H](CO)[C@@H](O)[C@H](O)[C@H]7O)[C@H]6O[C@@H]6O[C@@H](CO)[C@H](O)[C@H]6O)C(C)(C)[C@@H]5CC[C@]24C)[C@H]3[C@@]1(C)O` [bacopasaponin C], the “log P” value is around 2.
As to `CC(C)=C[C@H]1C[C@](C)(O)[C@@H]2[C@H]3CC[C@@H]4[C@@]5(C)CC[C@H](O[C@@H]6OC[C@H](O)[C@H](O[C@@H]7O[C@H](CO)[C@@H](O)[C@H](O)[C@H]7O)[C@H]6O[C@@H]6O[C@@H](CO)[C@H](O)[C@H]6O)C(C)(C)[C@@H]5CC[C@@]4(C)[C@@]34CO[C@@]2(C4)O1` [bacopaside X], the “log P” value is listed as around 2.2.
As to `CC(C)=C[C@H]1C[C@](C)(O)[C@H]2[C@H]3CC[C@@H]4[C@@]5(C)CC[C@H](O[C@@H]6O[C@H](CO)[C@@H](O)[C@H](O[C@@H]7O[C@H](CO)[C@@H](O)[C@H](O)[C@H]7O)[C@H]6O[C@@H]6O[C@@H](CO)[C@H](O)[C@H]6O)C(C)(C)[C@@H]5CC[C@@]4(C)[C@@]34CO[C@@]2(C4)O1` [bacoside A3], the “log P” value is around 2.1.
For `CC(C)=CCC[C@](C)(O[C@@H]1O[C@H](CO[C@@H]2O[C@H](CO)[C@@H](O)[C@H](O)[C@H]2O)[C@@H](O)[C@H](O)[C@H]1O)[C@H]1CC[C@]2(C)[C@@H]1[C@H](O)C[C@@H]1[C@@]3(C)CC[C@H](O[C@@H]4O[C@H](CO)[C@@H](O)[C@H](O)[C@H]4O[C@@H]4O[C@H](CO)[C@@H](O)[C@H](O)[C@H]4O)C(C)(C)[C@@H]3CC[C@]12C` [ginsenoside rb1], the “log P” value was around −1.
For `CC(C)=CCC[C@](C)(O[C@@H]1O[C@H](CO)[C@@H](O)[C@H](O)[C@H]1O)[C@H]1CC[C@]2(C)[C@@H]1[C@H](O)C[C@@H]1[C@@]3(C)CC[C@H](O)C(C)(C)[C@@H]3[C@@H](O[C@@H]3O[C@H](CO)[C@@H](O)[C@H](O)[C@H]3O)C[C@]12C` [ginsenoside rg1], the “log P” value is on record as around 0.8.
Take `COc1ccc(C23C=CC(O)CC2N(C)CC3)cc1OC` (stereo not drawn) [mesembrenol]: the “log P” value is on record as around 2.4.
As to `COc1ccc([C@@]23C=CC(=O)C[C@@H]2N(C)CC3)cc1OC` [mesembrenone], the “log P” value is on record as around 1.3.
In the case of `COc1ccc([C@@]23CCC(=O)C[C@@H]2N(C)CC3)cc1OC` [mesembrine], the “log P” value was around 1.5.
Turning to `COc1nc2c(c(=O)n1C)n(C)c(=O)n2C` [methylliberine], the “log P” value was around −0.083.
As to `CC(=O)OC1C=CC(=O)N(C(=O)CCc2ccccc2)C1` (stereo not drawn) [pipermethystine], the “log P” value is recorded as around 1.8.
For the compound `COc1cc([C@H]2Oc3cc(O)c4c(=O)c(O)c(-c5ccc(O)cc5)oc4c3O[C@@H]2CO)ccc1O` [rhodiolin], the “log P” value is around 2.
`OC[C@H]1O[C@@H](OCCc2ccc(O)cc2)[C@H](O)[C@@H](O)[C@@H]1O` [rhodosin, salidroside]: the “log P” value is around −1.
In the case of `COc1cc2c(c(OC)c1OC)-c1c(cc(OC)c(OC)c1OC)C[C@](C)(O)[C@@H](C)C2` [schisandrol A], the “log P” value is around 3.4.
As for `N#C[C@@]1(O[C@@H]2O[C@H](CO)[C@@H](O)[C@H](O)[C@H]2O)C=C[C@@H](O)C1` [tetraphyllin B], the “log P” value is given as around −2.5.
As to (R)-kawain, the “log P” value is reported as around 2.7.
For bacopaside B, the “log P” value was around 2.8.
Turning to hericerin, the log partition coefficient (log P) is recorded as around 6.4.
Turning to herinacine A, the “log P” value was around 2.5.
On to schisandroside C, for which the “log P” value is reported as around 1.6.
In the case of tortuosomine, the “log P” value is around 3.
